In the assay the target is T1, human CPT1A (Homo sapiens, UniProt P50416).
T1 construct: made in house; host or cells: Saccharomyces cerevisiae (pESC-trp) or cultured mammalian cells (pCDNA3.1); mitochondrial extract
T1 sequence (P50416 1-773): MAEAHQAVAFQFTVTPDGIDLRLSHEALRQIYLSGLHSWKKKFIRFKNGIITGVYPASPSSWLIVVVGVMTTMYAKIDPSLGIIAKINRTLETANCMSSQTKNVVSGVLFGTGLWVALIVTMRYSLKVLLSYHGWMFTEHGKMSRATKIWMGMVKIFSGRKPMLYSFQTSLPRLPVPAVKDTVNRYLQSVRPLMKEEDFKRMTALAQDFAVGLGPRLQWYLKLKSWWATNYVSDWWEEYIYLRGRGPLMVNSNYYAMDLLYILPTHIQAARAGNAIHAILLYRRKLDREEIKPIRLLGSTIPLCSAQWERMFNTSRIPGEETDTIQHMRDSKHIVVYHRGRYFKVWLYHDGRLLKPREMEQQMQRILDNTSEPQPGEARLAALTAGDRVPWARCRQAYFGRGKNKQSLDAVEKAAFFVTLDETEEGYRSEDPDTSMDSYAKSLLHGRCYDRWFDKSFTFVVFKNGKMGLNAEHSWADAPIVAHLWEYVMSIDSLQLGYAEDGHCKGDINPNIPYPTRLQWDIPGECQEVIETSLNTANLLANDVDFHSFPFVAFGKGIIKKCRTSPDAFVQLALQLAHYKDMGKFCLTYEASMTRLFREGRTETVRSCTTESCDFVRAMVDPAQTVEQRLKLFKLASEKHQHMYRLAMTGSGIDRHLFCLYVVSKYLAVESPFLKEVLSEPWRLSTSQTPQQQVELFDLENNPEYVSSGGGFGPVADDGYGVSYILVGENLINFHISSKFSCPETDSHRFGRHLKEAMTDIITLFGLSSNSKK
The assay can be described thus: Human CPT1A LC/MS assay. The assay is classed as biochemical. The note with it: human CPT1A LC/MS assay, dose response format. An excerpt: Nucleotide sequences encoding human CPT1 enzymes were individually cloned into the yeast expression vector pESC-trp at the Cla1 (5′ terminus) and Pac1 (3′ terminus) restriction sites by PCR amplification of the open reading frame using oligonucleotide primers designed to encode the wild-type CPT1 protein sequence. Standard molecular biology techniques were used to transform and express the CPT1 proteins in the yeast Saccharomyces cerevisiae. The yeast cells were lysed by enzymatic degradation of the cell wall by Zymolase, and the mitochondria were isolated by standard biochemical techniques. The integrity of the isolated mitochondria was monitored by determining the activity of succinate dehydrogenase in the mitochondrial preparations. The mitochondrial extracts were stored at −80° C. in buffer containing 10 mM HEPES pH 7.4 and 250 mM sucrose.
Human CPT1 (A, B, C) genes were additionally cloned into the pCDNA3.1 vector individually for expression in cultured mammalian cells. Cells expressing the exogenous CPT1A were identified and grown under standard conditions. Mammalian cells were harvested, and mitochondrial extracts prepared using standard biochemical methods. The mitochondrial extracts were stored at −80° C. in buffer containing 10 mM HEPES pH 7.4 and 250 mM sucrose.
Assays were performed in 96-well plate format. Each 100 μL reaction contained 40 mM KCl, 50 mM TrisHCl pH 7.5, and 250 mM mannitol (Assay Buffer), and 1.6 μg protein of an extract, 20 μM palmitoyl-CoA, 50 μM L-carnitine, and 10 ug/mL BSA. Reactions were incubated at room temperature and stopped after 10 minutes by extraction with 200 μL of water saturated n-butanol containing myristoyl carnitine (500 nM) as an internal standard. The samples were thoroughly mixed, and the phases separated by centrifugation. Samples were prepared for analysis with a 10 fold dilution of the n-butanol phase containing the reaction product palmitoyl carnitine into a 50:50 (acetonitrile:water) solvent for analysis. […] of prepared sample was separated on a Phenomenex Jupiter 5μ C4 reverse-phase column using an Agilent 1100 HPLC with a gradient from 50% acetonitrile (0.5% acetic acid) to 100% acetonitrile and quantified by detection with a Bruker Esquire 3000plus mass spectrometer. The abundance of the palmitoyl carnitine product was determined relative to the internal standard and the actual quantity of palmitoyl carnitine can be determined from a standard curve prepared using the n-butanol solution containing the internal standard.
Compounds were evaluated in two formats, a screening format, and a dose response format. The screening format was performed by adding 25 μL compound in 20% DMSO and Assay Buffer to 25 μL of extract containing […] and Assay Buffer, followed by a 10 minute incubation at room temperature. 50 μL of 40 μM palmitoyl-CoA in Assay Buffer was added to the reaction mixture, mixed and incubated for 10 minutes at room temperature. A negative control for activity was also performed where the carnitine was omitted from the reaction. A positive control for activity was also performed by omitting compound from the solution containing 20% DMSO and Assay Buffer. The reaction mixture was extracted and analyzed as described above. The inhibition by compound was determined by comparing the control relative activity to the relative activity observed in wells containing the compound. Relative activity was determined by subtracting the relative intensity (area palmitoyl carnitine/area myristoyl carnitine) observed in the negative control from the relative intensity observed in the experimental well, and dividing by the relative activity observed in the positive control.
[formula] Compound characterization by dose response format was performed using the above described assay conditions and a 16 point compound titration in 2 fold compound dilution steps. The DMSO concentration was kept constant at 20% (v/v) for all compound concentrations.

pIC50: −log10 of the molar value. Structures can show the parent of a compound that is named as a salt. Where only a bound is given, the exact number is not on record here.

In general, pIC50 refers to the IC50 on a negative log10 scale, so that one unit is a factor of ten. The compound `CCCCCCc1ccc(C#Cc2ccc(C(=O)N[C@H](CC(=O)O)C[N+](C)(C)C)o2)s1` [Example S118, (R)-3-carboxy-2-(5-((5-hexylthiophen-2-yl)ethynyl)furan-2-carboxamido)-N,N,N-trimethylpropan-1-aminium 2,2,2-trifluoroacetate] showed a pIC50 of 5.00 to 6.00.

`CC(=O)Nc1ccc(C(=O)N[C@H](CC(=O)[O-])C[N+](C)(C)C)cc1` [Example S53, (R)-3-(4-acetamidobenzamido)-4-(trimethylammonio)butanoate]: the pIC50 is less than 2.60.

For `C[N+](C)(C)C[C@@H](CC(=O)[O-])NC(=O)Nc1cccc(Cc2ccccc2)c1` [Example S86, (R)-3-(3-(3-benzylphenyl)ureido)-4-(trimethylammonio)butanoate], the pIC50 was 3.00 to 4.00.

`CCCCCCCCc1cccc(N(C)S(=O)(=O)N[C@H](CC(=O)O)C[N+](C)(C)C)c1` [Example S113, (R)-3-carboxy-N,N,N-trimethyl-2-(N-methyl-N-(3-octylphenyl)sulfamoylamino)propan-1-aminium 2,2,2-trifluoroacetate] gave a pIC50 of 5.00 to 6.00.

The compound `Cc1ncoc1C(=O)N[C@H](CC(=O)O)C[N+](C)(C)C` [Example S49, (R)-3-carboxy-N,N,N-trimethyl-2-(4-methyloxazole-5-carboxamido)-propan-1-aminium trifluoroacetate] gave a pIC50 of 3.00 to 4.00.

`C[N+](C)(C)C[C@@H](CC(=O)[O-])NC(=O)c1ccc(CCc2ccccc2)cc1` [Example S64, (R)-3-(4-phenethylbenzamido)-4-(trimethylammonio)butanoate] showed a pIC50 of 4.00 to 5.00.

As for `C[N+](C)(C)C[C@@H](CC(=O)[O-])NC(=O)Nc1ccc(Oc2ccccc2)cc1` [Example S8, (R)-3-(3-(4-phenoxyphenyl)ureido)-4-(trimethylammonio)butanoate], the pIC50 is 4.00 to 5.00.

`C[N+](C)(C)C[C@@H](CC(=O)O)NC(=O)Nc1ccc(-c2ccccc2)cc1` [Example S17, (R)-2-(3-Biphenyl-4-ylureido)-3-carboxy-N,N,N-trimethylpropan-1-aminium acetate] had a pIC50 of 3.00 to 4.00.

Compound `CN(C)C[C@@H](CC(=O)O)NC(=O)N(C)c1ccc(Oc2ccccc2)cc1` [Example S33, (R)-4-(dimethylammonio)-3-(3-methyl-3-(4-phenoxyphenyl)-ureido)butanoate] gave a pIC50 of less than 2.60.

As to `C[N+](C)(C)C[C@@H](CC(=O)O)NC(=O)c1ccc(C#Cc2ccccc2)s1` [Example S43, (R)-3-(5-(phenylethynyl)thiophene-2-carboxamido)-4-(trimethylammonio)-butanoate], the pIC50 is not below 6.00.

Turning to `C[N+](C)(C)C[C@@H](CC(=O)O)NC(=O)c1ccc(-c2cccs2)s1` [Example S44, (R)-3-(2,2′-bithiophene-5-carboxamido)-4-(trimethylammonio)butanoate], the pIC50 was 3.00 to 4.00.

The compound `C[N+](C)(C)C[C@@H](CC(=O)O)NC(=O)c1ccc(CCc2ccsc2)o1` [Example S124, (R)-3-carboxy-N,N,N-trimethyl-2-(5-(2-(thiophen-3-yl)ethyl)furan-2-carboxamido)propan-1-aminium 2,2,2-trifluoroacetate] gave a pIC50 not below 6.00.

For the compound `CCCCCCC#Cc1ccc(NS(=O)(=O)N[C@H](CC(=O)[O-])C[N+](C)(C)C)cc1` [Example S106, (R)-3-(N-(4-(oct-1-ynyl)phenyl)sulfamoylamino)-4-(trimethylammonio) butanoate], the pIC50 was 5.00 to 6.00.

The compound `C[N+](C)(C)C[C@@H](CC(=O)O)NC(=O)c1ccc(C#Cc2ccsc2)o1` [Example S116, (R)-3-carboxy-N,N,N-trimethyl-2-(5-(thiophen-3-ylethynyl)furan-2-carboxamido)propan-1-aminium 2,2,2-trifluoroacetate] gave a pIC50 of 4.00 to 5.00.

The compound `C[N+](C)(C)C[C@@H](CC(=O)O)NC(=O)c1ccc(CCc2ccccc2)s1` [Example S45, (R)-3-(5-phenethylthiophene-2-carboxamido)-4-(trimethylammonio)-butanoate] gave a pIC50 not below 6.00.

As for `CCCCCCC#Cc1cccc(NS(=O)(=O)N[C@H](CC(=O)[O-])C[N+](C)(C)C)c1` [Example S110, (R)-3-(N-(3-(oct-1-ynyl)phenyl)sulfamoylamino)-4-(trimethylammonio) butanoate], the pIC50 was 4.00 to 5.00.

In turn, `C[N+](C)(C)C[C@@H](CC(=O)O)NC(=O)c1cccc(CCc2ccccc2)c1` [Example S46, (R)-3-(3-phenethylbenzamido)-4-(trimethylammonio)butanoate] gave a pIC50 of 3.00 to 4.00.

`CCCCCc1ccc(CCc2ccc(C(=O)N[C@H](CC(=O)O)C[N+](C)(C)C)o2)cc1` [Example S123, (R)-3-carboxy-N,N,N-trimethyl-2-(5-(4-pentylphenethyl)furan-2-carboxamido)propan-1-aminium 2,2,2-trifluoroacetate] showed a pIC50 not below 6.00.

Regarding `CCCCCCCC#Cc1ccc(NS(=O)(=O)N[C@H](CC(=O)[O-])C[N+](C)(C)C)cc1` [Example S104, (R)-3-(N-(4-(non-1-ynyl)phenyl)sulfamoylamino)-4-(trimethylammonio) butanoate], the pIC50 was 5.00 to 6.00.

For `C[N+](C)(C)C[C@@H](CC(=O)[O-])NC(=O)Nc1cccc(Oc2ccccc2)c1` [Example S38, (R)-3-(3-(3-Phenoxyphenyl)ureido)-4-(trimethylammonio)butanoate], the pIC50 was 3.00 to 4.00.

Compound `C[N+](C)(C)C[C@@H](CC(=O)[O-])NC(=O)c1ccc(C#Cc2ccccc2)o1` [Example S3, (R)-3-(5-(phenylethynyl)furan-2-carboxamido)-4-(trimethylammonio)-butanoate] gave a pIC50 of 4.00 to 5.00.

In turn, `CCCCCc1ccc(CCc2ccc(S(=O)(=O)N[C@H](CC(=O)O)C[N+](C)(C)C)s2)cc1` [Example S83, (R)-3-carboxy-N,N,N-trimethyl-2-(5-(4-pentylphenethyl)thiophene-2-sulfonamido)propan-1-aminium 2,2,2-trifluoroacetate] gave a pIC50 of 5.00 to 6.00.

For `C[N+](C)(C)C[C@@H](CC(=O)[O-])NC(=O)Nc1ccccc1-c1ccccc1` [Example S101, (R)-2-(3-biphenyl-2-ylureido)-3-carboxy-N,N,N-trimethylpropan-1-aminium], the pIC50 was 2.60 to 3.00.

Compound `CCCCCCCCc1ccc(NS(=O)(=O)N[C@H](CC(=O)[O-])C[N+](C)(C)C)cc1` [Example S30, (R)-3-(N-(4-octylphenyl)sulfamoylamino)-4-(trimethylammonio)butanoate] showed a pIC50 not below 6.00.

Compound `CCCCCCC(=O)C(=O)N[C@H](CC(=O)O)C[N+](C)(C)C` [Example S120, (R)-3-carboxy-N,N,N-trimethyl-2-(2-oxooctanamido)propan-1-aminium 2,2,2-trifluoroacetate] showed a pIC50 of 5.00 to 6.00.
